Experimental data published in US12110293B2, “Substituted triazolo quinoxaline derivatives” (GRÜNENTHAL GMBH, priority 2018, dated 2024).

Biological target: T1, glucocorticoid receptor (Homo sapiens, UniProt P04150)
T1 construct: expressed in transfected cells
T1 sequence (P04150 524-758 limits assumed): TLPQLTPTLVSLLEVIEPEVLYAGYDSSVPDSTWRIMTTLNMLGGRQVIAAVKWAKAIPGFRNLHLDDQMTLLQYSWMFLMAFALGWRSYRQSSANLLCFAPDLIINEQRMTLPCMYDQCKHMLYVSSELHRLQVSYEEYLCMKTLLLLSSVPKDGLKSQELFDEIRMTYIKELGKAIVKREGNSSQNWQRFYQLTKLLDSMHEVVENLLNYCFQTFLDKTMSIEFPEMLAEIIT
Test: Agonistic mode of action on the glucocorticoid receptor (CHO-Gal4/GR luciferase reporter cell line)
Format: cell-based
Conditions: range class observed in the agonistic assay or the antagonistic assay (CHO-Gal4/GR reporter cells); table does not say which mode applies per example
Source text: Potential selective glucocorticoid receptor modulators of this intervention can be tested for modulation of the activity of the glucocorticoid receptor using cell-based assays. These assays involve a Chinese hamster ovary (CHO) cell line which contains fragments of the glucocorticoid receptor as well as fusion proteins. The glucocorticoid receptor fragments used are capable of binding the ligand (e.g. beclomethasone) to identify molecules that compete for binding with glucocorticoid receptor ligands. In more detail, the glucocorticoid receptor ligand binding domain is 25 fused to the DNA binding domain (DBD) of the transcriptionfactor GAL4 (GAL4 DBD-GR) and is stably integrated into a CHO cell line containing a GAL4-UAS-Luciferase reporter construct. […] After cell lysis the luminescence that is produced by luciferase after addition of the substrate is detected and EC50 or IC50 values can be calculated. Engagement of molecules which induce gene expression via glucocortocoid receptor binding to the DNA leads to expression of the luciferase gene under the control of the fusion protein GAL4 DBD-GR and therefore to a dose-dependent increase of the luminescence signal. Binding of molecules which repress beclomethasone-induced gene expression of the luciferase gene under the control of the fusion protein GAL4 DBD-GR leads to a dose-dependent reduction of the luminescence signal.
Biological Assays Agonistic Mode of Action on the Glucocorticoid Receptor
The reporter cell line CHO-Gal4/GR consisted of a Chinese hamster ovary (CHO) cell line (Leibniz Institute DSMZ—German Collection of Microorganisms and Cell CuItures GmbH: ACC-110) containing a firefly luciferase gene under the control of the GR ligand binding domain fused to the DNA binding domain (DBD) of GAL4 (GAL4 DBD-GR) stably integrated into CHO cells. This cell line was established by stable transfection of CHO cells with a GAL4-UAS-Luciferase reporter construct. In a subsequent step the ligand binding domain of the GR cloned into pIRES2-EGFP-GAL4 containing the DNA binding domain of GAL4 from pFA-AT2 was transfected. This fusion construct activated firefly luciferase expression under the control of a multimerized GAL4 upstream activation sequence (UAS). The signal of the emitted luminescence was recorded by the FLIPR^TETRA. This allowed for specific detection of ligand-induced activation of the GR and therefore for the identification of compounds with agonistic properties. The GAL4/UAS reporter was premixed with a vector that constitutively expressed Renilla luciferase, which served as an internal positive control for transfection efficiency.
The complete culture medium for the assay was: • DMEM F-12 (1:1) MIXTURE (LONZA cat. N°: BE04-687F/U1) 500 mL • 5 mL of 100 mM Sodium Pyruvate (LONZA cat. N°: BE12-115E) • 25 mL of 7.5% Sodium Bicarbonate (LONZA cat. N° BE17-613E) • 6.5 mL of 1 M Hepes (LONZA cat. N°: BE17-737E) • 5 mL of 100× Penicillin/Streptomycin (LONZA cat. N° DE17-602E) • 50 mL of Fetal Bovine Serum (Euroclone cat. N° ECS 0180L) • 0.25 mL of 10 mg/mL Puromycin (InvivoGen cat.: ant-pr-1) • 0.5 mL of 100 mg/mL Zeocin (InvivoGen cat.: ant-zn-1)
Cryo-preserved CHO-Gal4/GR cells were suspended in complete medium and 5000 cells/25 μl/well were seeded into the wells of 384-well polystyrene assay plates (Thermo Scientific, cat. #4332) and cultured at 37° C., 5% CO2 and 95% humidity. After 24 hours growth medium was carefully removed and replaced by 30 μl Opti-MEM (GIBCO, cat. #31985062) as assay buffer. To test the compounds an 8-point half-log compound dilution curve was generated in 100% DMSO starting from a 2 mM stock and compounds were then diluted 1:50 in Opti-MEM. 10 μl of compounds were then added to the wells containing 30 μl Opti-MEM resulting in a final assay concentration range from 10 μM to 0.003 μM in 0.5% DMSO. Compounds were tested at 8 concentrations in quadruplicate data points.

## Cc1nnc2n1-c1c(cc(F)c(-c3cccc4c3ccn4CC(=O)N(C)C)c1F)NC2(C)C [Example 212, 2-[4-(7,9-Difluoro-1,4,4-trimethyl-5H-[1,2,4]triazolo[4,3-a]quinoxalin-8-yl)-1H-indol-1-yl]-N,N-dimethyl-acetamide]
  IC50 or EC50 (agonist or antagonist mode not specified): 1000 to 15000 nM

## COc1cc2c(c(C(F)(F)F)c1-c1cc(F)cc3c(C)c[nH]c13)-n1c(C)nnc1C(C)(C)N2 [Example 459, 8-(5-Fluoro-3-methyl-1H-indol-7-yl)-7-methoxy-1,4,4-trimethyl-9-(trifluoromethyl)-5H-[1,2,4]triazolo[4,3-a]quinoxaline]
  IC50 or EC50 (agonist or antagonist mode not specified): < 100 nM

## Cc1nnc2n1-c1c(cc(F)c(-c3cccc4c3ccn4CC3CC3)c1F)NC2(C)C [Example 202, 8-[1-(Cyclopropyl-methyl)-1H-indol-4-yl]-7,9-difluoro-1,4,4-trimethyl-5H-[1,2,4]triazolo[4,3-a]quinoxaline]
  IC50 or EC50 (agonist or antagonist mode not specified): < 100 nM

## Cc1nnc2n1-c1c(cc(C(F)F)c(-c3cccc4[nH]ccc34)c1F)NC2(C)C [Example 343, 7-(Difluoro-methyl)-9-fluoro-8-(1H-indol-4-yl)-1,4,4-trimethyl-5H-[1,2,4]triazolo[4,3-a]quinoxaline]
  IC50 or EC50 (agonist or antagonist mode not specified): 1000 to 15000 nM

## CCc1c(-c2cc(F)cc3c2cnn3CCO)c(F)cc2c1-n1c(C)nnc1C(C)(C)N2 [Example 45, 2-[4-(9-Ethyl-7-fluoro-1,4,4-trimethyl-5H-[1,2,4]triazolo[4,3-a]quinoxalin-8-yl)-6-fluoro-1H-indazol-1-yl]-ethanol]
  IC50 or EC50 (agonist or antagonist mode not specified): 100 to 1000 nM

## CCS(=O)(=O)n1ccc2c(-c3c(OC)cc4c(c3C(F)(F)F)-n3c(C)nnc3C(C)(C)N4)cc(F)cc21 [Example 369, 8-[1-(Ethylsulfonyl)-6-fluoro-1H-indol-4-yl]-7-methoxy-1,4,4-trimethyl-9-(trifluoromethyl)-5H-[1,2,4]triazolo[4,3-a]quinoxaline]
  IC50 or EC50 (agonist or antagonist mode not specified): 100 to 1000 nM

## Cc1nnc2n1-c1c(cc(F)c(-c3ccc(Cl)c4[nH]ccc34)c1C(F)(F)F)NC2(C)C [Example 530, 8-(7-Chloro-1H-indol-4-yl)-7-fluoro-1,4,4-trimethyl-9-(trifluoromethyl)-5H-[1,2,4] triazolo[4,3-a]quinoxaline]
  IC50 or EC50 (agonist or antagonist mode not specified): 100 to 1000 nM

## Cc1c[nH]c2c(-c3c(OC(F)F)cc4c(c3F)-n3c(C)nnc3C(C)(C)N4)cccc12 [Example 282, 7-(Difluoro-methoxy)-9-fluoro-1,4,4-trimethyl-8-(3-methyl-1H-indol-7-yl)-5H-[1,2,4]triazolo[4,3-a]quinoxaline]
  IC50 or EC50 (agonist or antagonist mode not specified): 100 to 1000 nM

## CCc1nnc2n1-c1c(cc(F)c(-c3c(F)ccc4[nH]ccc34)c1C)NC2(C)C [Example 244, 1-Ethyl-7-fluoro-8-(5-fluoro-1H-indol-4-yl)-4,4,9-trimethyl-5H-[1,2,4]triazolo[4,3-a]quinoxaline]
  IC50 or EC50 (agonist or antagonist mode not specified): 1000 to 15000 nM

## Cc1c(-c2cc(F)cc3c2ccn3S(C)(=O)=O)c(Cl)cc2c1-n1c(C)nnc1C(C)(C)N2 [Example 333, 7-Chloro-8-(6-fluoro-1-methylsulfonyl-1H-indol-4-yl)-1,4,4,9-tetramethyl-5H-[1,2,4] triazolo[4,3-a]quinoxaline]
  IC50 or EC50 (agonist or antagonist mode not specified): < 100 nM

## Cc1c(-c2cc(F)cc3c2ccn3S(C)(=O)=O)c(OC(F)(F)F)cc2c1-n1c(C)nnc1C(C)(C)N2 [Example 403, 8-(6-Fluoro-1-methylsulfonyl-1H-indol-4-yl)-1,4,4,9-tetramethyl-7-(trifluoromethyloxy)-5H-[1,2,4]triazolo[4,3-a]quinoxaline]
  IC50 or EC50 (agonist or antagonist mode not specified): < 100 nM

## Cc1cc2c(c(C)c1-c1cc(F)cc3c1cnn3S(C)(=O)=O)-n1c(C)nnc1C(C)(C)N2 [Example 373, 8-(6-Fluoro-1-methylsulfonyl-1H-indazol-4-yl)-1,4,4,7,9-pentamethyl-5H-[1,2,4]triazolo[4,3-a]quinoxaline]
  IC50 or EC50 (agonist or antagonist mode not specified): 100 to 1000 nM

## Cc1c(-c2cc(F)cc3c(C4CC4)c[nH]c23)c(Cl)cc2c1-n1c(C)nnc1C(C)(C)N2 [Example 485, 7-Chloro-8-(3-cyclopropyl-5-fluoro-1H-indol-7-yl)-1,4,4,9-tetramethyl-5H-[1,2,4]triazolo [4,3-a]quinoxaline]
  IC50 or EC50 (agonist or antagonist mode not specified): < 100 nM

## Cc1ccc(-c2c(F)cc3c(c2C(F)F)-n2c(C)nnc2C(C)(C)N3)c2ccn(S(C)(=O)=O)c12 [Example 512, 9-(Difluoro-methyl)-7-fluoro-1,4,4-trimethyl-8-(7-methyl-1-methylsulfonyl-1H-indol-4-yl)-5H-[1,2,4]triazolo[4,3-a]quinoxaline]
  IC50 or EC50 (agonist or antagonist mode not specified): 1000 to 15000 nM

## CCc1nnc2n1-c1c(cc(F)c(-c3cc(F)cc4c3ccn4CC3CC3)c1C)NC2(C)C [Example 35, 8-(1-(cyclopropylmethyl)-6-fluoro-1H-indol-4-yl)-1-ethyl-7-fluoro-4,4,9-trimethyl-4,5-dihydro-[1,2,4]triazolo[4,3-a]quinoxaline]
  IC50 or EC50 (agonist or antagonist mode not specified): 100 to 1000 nM

## CC#CCc1nnc2n1-c1c(cc(F)c(-c3cccc4c(C)c[nH]c34)c1F)NC2(C)C [Example 70, 1-(but-2-yn-1-yl)-7,9-difluoro-4,4-dimethyl-8-(3-methyl-1H-indol-7-yl)-4,5-dihydro-[1,2,4]triazolo[4,3-a]quinoxaline]
  IC50 or EC50 (agonist or antagonist mode not specified): < 100 nM

## Cc1c(-c2cccc3c2ccn3S(C)(=O)=O)ccc2c1-n1c(C)nnc1C(C)(C)N2 [Example 450, 1,4,4,9-tetramethyl-8-(1-(methylsulfonyl)-1H-indol-4-yl)-4,5-dihydro-[1,2,4]triazolo[4,3-a]quinoxaline]
  IC50 or EC50 (agonist or antagonist mode not specified): 100 to 1000 nM

## Cc1c(-c2cccc3c2cnn3S(C)(=O)=O)ccc2c1-n1c(C)nnc1C(C)(C)N2 [Example 457, 1,4,4,9-Tetramethyl-8-(1-methylsulfonyl-1H-indazol-4-yl)-5H-[1,2,4]triazolo[4,3-a] quinoxaline]
  IC50 or EC50 (agonist or antagonist mode not specified): 100 to 1000 nM

## Cc1nnc2n1-c1c(cc(OC(F)F)c(-c3cccc4[nH]ccc34)c1F)NC2(C)C [Example 297, 7-(Difluoro-methoxy)-9-fluoro-8-(1H-indol-4-yl)-1,4,4-trimethyl-5H-[1,2,4]triazolo[4,3-a]quinoxaline]
  IC50 or EC50 (agonist or antagonist mode not specified): 1000 to 15000 nM

## Cc1c[nH]c2c(-c3c(F)cc4c(c3Cl)-n3c(C)nnc3C(C)(C)N4)cc(F)cc12 [Example 30]
  IC50 or EC50 (agonist or antagonist mode not specified): < 100 nM

## CC(=O)n1ccc2c(-c3c(F)cc4c(c3F)-n3c(C)nnc3C(C)(C)N4)cc(F)cc21 [Example 4, 1-(4-(7,9-difluoro-1,4,4-trimethyl-4,5-dihydro-[1,2,4]triazolo[4,3-a]quinoxalin-8-yl)-6-fluoro-1H-indol-1-yl)ethanone]
  IC50 or EC50 (agonist or antagonist mode not specified): < 100 nM

## Cc1nnc2n1-c1c(cc(F)c(-c3cccc4c3cnn4S(=O)(=O)C3CC3)c1F)NC2(C)C [Example 234, 8-[1-(Cyclopropylsulfonyl)-1H-indazol-4-yl]-7,9-difluoro-1,4,4-trimethyl-5H-[1,2,4]triazolo[4,3-a]quinoxaline]
  IC50 or EC50 (agonist or antagonist mode not specified): 1000 to 15000 nM
